Reference: patent publication US20200261427A1 (Al Therapeutics, Inc., priority 2019, published 2020)
≈ marks a conversion by molar mass, not a printed value.

Assays:
physchem = details: thermodynamic from solid
Experimental: (§1) All solutions were buffered with 5 mM citrate buffer at pH 4.5.

[1] = Solubility screening by gravimetric analysis; format: physicochemical
Experimental: Solubility screening was performed by gravimetric analysis. In a glass vial, known amounts of API were added to a known amount of solvent and the sample was rotated with a vial rotator (VWR) at room temperature. If the API completely dissolved, an additional known amount was added. The samples were rotated for at least 48 hours after the last API addition before determining the gravimetric result (i.e., greater than a % w/w or less than a % w/w).

[2] = Antioxidant screen in Transcutol; format: physicochemical
Experimental: Since there was significant degradation in diethylene glycol monoethyl ether (TC) after 1 week, and TC can generate peroxides, it was selected as the solvent for the antioxidant screen. […] (1) No antioxidant; […] […] The 4-week data at 40° C. was used to calculate the main effects of the two antioxidants and their interaction (Box et al., 1978) for the assay values. The positive effect of BHA (+23.8) was twice the positive effect of Vit. E (+11.6).

[3] = pH stability screen of rapamycin in 1:1 ethanol:water; format: physicochemical; details: 0.1 mg/mL in 1:1 ethanol:water, pH 3, 5, unbuffered; 1 week at 5, 25, 40° C. (FIG. 2)
Experimental: 20 mM citrate buffers were prepared at pH 3, 5 and 7. With the exception of the pH 7 buffer, these buffers were miscible in 50% ethanol. Rather than reduce the buffer concentration to obtain a higher pH, the third solution was prepared with unbuffered water. An Orion 710A+ pH meter with a Thermo Scientific electrode was used for pH measurement.

[4] = Stability of rapamycin in solvents PG, TC, DMI; format: physicochemical; details: 0.2% w/w in DMI, 1 week at 5, 25, 40° C. (FIG. 3)
[5] = Saturation solubility in solvents and 10% co-solvent aqueous solutions
Experimental: as §1

[6] = Microscopic examination of rapamycin crystal growth; details: rectangular crystals in gels showing crystal growth

## CO[C@H]1C[C@@H]2CC[C@@H](C)[C@@](O)(O2)C(=O)C(=O)N2CCCC[C@H]2C(=O)O[C@H]([C@H](C)C[C@@H]2CC[C@@H](O)[C@H](OC)C2)CC(=O)[C@H](C)/C=C(\C)[C@@H](O)[C@@H](OC)C(=O)[C@H](C)C[C@H](C)/C=C/C=C/C=C/1C [Rapamycin, rapamycin]
physchem; 10% TC and 10% DMI aqueous solutions versus water, pH 4.5, aqueous with cosolvent or surfactant or cyclodextrin
  solubility: 1.5 to 2 µg/mL (≈ 1.64 to 2.19 µM)
physchem; 10% propylene glycol (PG) aqueous solution, citrate buffered, pH 4.5, aqueous with cosolvent or surfactant or cyclodextrin
  solubility: 2.9 µg/mL (≈ 3.17 µM)
physchem; pH 4.5, aqueous with cosolvent or surfactant or cyclodextrin
  solubility: 5.2 µg/mL (≈ 5.69 µM)
physchem; water, citrate buffered, pH 4.5, aqueous buffer
  solubility: 2.9 µg/mL (≈ 3.17 µM)
[1]; Diethylene glycol monoethyl ether (TC)
  Rapamycin solubility % w/w: >13 % w/w
[1]; Diisopropyl adipate
  Rapamycin solubility % w/w: <1.0 % w/w
[1]; Dimethyl isosorbide (DMI)
  Rapamycin solubility % w/w: >7 % w/w
[1]; Hexylene glycol
  Rapamycin solubility % w/w: <1.0 % w/w
[1]; Isopropyl myristate
  Rapamycin solubility % w/w: <0.1 % w/w
[1]; Light mineral oil
  Rapamycin solubility % w/w: <0.3 % w/w
[1]; Medium chain triglycerides
  Rapamycin solubility % w/w: <0.1 % w/w
[1]; Octyldodecanol
  Rapamycin solubility % w/w: <1.0 % w/w
[1]; PEG 400
  Rapamycin solubility % w/w: <1.5 % w/w
[1]; Propylene glycol (PG), room temperature
  Rapamycin solubility % w/w: <0.75 % w/w
[2]; 0.002% Vit. E, 25° C., week 1
  Rapamycin Assay (% of Initial): 98.3 % of Initial
[2]; 0.002% Vit. E, 25° C., week 4
  Rapamycin Assay (% of Initial): 98.2 % of Initial
[2]; 0.002% Vit. E, 40° C., week 1
  Rapamycin Assay (% of Initial): 96.8 % of Initial
[2]; 0.002% Vit. E, 40° C., week 2
  Rapamycin Assay (% of Initial): 97.0 % of Initial
[2]; 0.002% Vit. E, 40° C., week 4
  Rapamycin Assay (% of Initial): 82.2 % of Initial
[2]; 0.01% BHA, 25° C., week 1
  Rapamycin Assay (% of Initial): 99.2 % of Initial
[2]; 0.01% BHA, 25° C., week 4
  Rapamycin Assay (% of Initial): 98.3 % of Initial
[2]; 0.01% BHA, 40° C., week 1
  Rapamycin Assay (% of Initial): 97.1 % of Initial
[2]; 0.01% BHA, 40° C., week 2
  Rapamycin Assay (% of Initial): 98.1 % of Initial
[2]; 0.01% BHA, 40° C., week 4
  Rapamycin Assay (% of Initial): 94.4 % of Initial
[2]; 0.2% w/w in Transcutol, No Antioxidant, 25° C., week 1
  Rapamycin Assay (% of Initial): 95.7 % of Initial
[2]; BHA + Vit. E, 25° C., week 1
  Rapamycin Assay (% of Initial): 98.8 % of Initial
[2]; BHA + Vit. E, 25° C., week 4
  Rapamycin Assay (% of Initial): 98.7 % of Initial
[2]; BHA + Vit. E, 40° C., week 1
  Rapamycin Assay (% of Initial): 96.9 % of Initial
[2]; BHA + Vit. E, 40° C., week 2
  Rapamycin Assay (% of Initial): 98.7 % of Initial
[2]; BHA + Vit. E, 40° C., week 4
  Rapamycin Assay (% of Initial): 96.2 % of Initial
[2]; No Antioxidant, 25° C., week 4
  Rapamycin Assay (% of Initial): 84.6 % of Initial
[2]; No Antioxidant, 40° C., week 1
  Rapamycin Assay (% of Initial): 87.3 % of Initial
[2]; No Antioxidant, 40° C., week 2
  Rapamycin Assay (% of Initial): 79.0 % of Initial
[2]; No Antioxidant, 40° C., week 4
  Rapamycin Assay (% of Initial): 60.8 % of Initial
[3]
  rapamycin pH stability: more stable at an acidic pH
[4]
  solvent compatibility (solution stability): most compatible with propylene glycol (PG) and least compatible with dimethyl isosorbide (DMI)
[5]; 10% Diethylene Glycol Monoethyl Ether (TC), pH 4.5, 5 mM citrate
  Rapamycin Solubility: 4.6 µg/mL
[5]; in TC
  saturation solubility: 15.5 % w/w
[6]
  length of rapamycin crystals grown: 25-100 microns
